Here are results for eight molecules from PubChem BioAssay AID2488 (The Scripps Research Institute Molecular Screening Center, 2010).

Calls of active or inactive are those of the source.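 The calls were made as follows: active = IC50 at or below 10 µM; inactive = IC50 above 10 µM.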

The assay concerns the target HCV core protein (core106) dimerization, Hepatitis C virus. Put plainly: core106 dimer disruption concentration response – biochemical, TR-FRET, dose response, powder samples, late-stage follow-up (AID 2488). The conditions noted are these: GST/Flag-core106 dimerization, TR-FRET HTRF. On the technique in general: In TR-FRET formats the signal depends on donor and acceptor labels being close together.
Broadly, the IC50 is the concentration needed to halve the response being measured. With `Cc1ccc(Cc2c(C)nc3nc(SCC(=O)NCCCN4CCCCCC4)nn3c2C)cc1`, the IC50 is 3.67 µM.
The result for `COc1ccc(NC(=O)CN(C)C(=O)c2cc3c(s2)CCC3)cc1` reads “inactive”; that for `O=C(/C=C/c1ccc(Br)o1)OCc1nc2ccsc2c(=O)[nH]1`, > 49.8 µM (inactive); that for `CCN(CC(=O)Nc1c(F)cccc1F)C(=O)/C=C/c1ccc2ccccc2n1`, “inactive”.
With `Cc1ccccc1N1C(=O)/C(=C/c2ccco2)C(=O)NC1=S`, the IC50 entry is “inactive”.
The result for `CC1=C(/C=C/C(C)=C/C=C/C(C)=C/C=C/C=C(C)/C=C/C=C(C)/C=C/C2=C(C)CCCC2(C)C)C(C)(C)CCC1` reads > 49.8 µM (inactive).
As to `CCCCCC#CCC#CCC#CCC#CCCCC(=O)O`, the IC50 was > 49.8 µM (inactive).
With `COCCN(C(=O)COC(=O)c1cc2c(s1)CCC2)c1c(N)n(Cc2ccccc2)c(=O)[nH]c1=O`, the IC50 entry was “inactive”.
